{"source": "patent US20110045032A1", "about": "(priority 2001, published 2011)", "key": {"mast cell": {"test_system": "mast cell", "settings": "cell incubation for 5 min; cited from earlier work"}, "HT-29 SF cells [1]": {"test_system": "HT-29 SF cells", "experiment": "Reversal of DHEA-mediated growth inhibition by supplements", "assay_type": "cell-based, human", "settings": "25 μM DHEA, 48 hours of treatment"}, "[2]": {"test_system": "patients with mild-to-moderate asthma", "settings": "cited from earlier work"}, "HT-29 SF cells [3]": {"test_system": "HT-29 SF cells", "experiment": "Reversal of DHEA effect on cell cycle by supplements", "assay_type": "cell-based, human", "settings": "25 μM DHEA"}, "mast cells": {"test_system": "mast cells", "settings": "cited from earlier work"}, "[4]": {"test_system": "Intracellular Adenosine in various Rat Tissues", "assay_type": "in vivo", "description": "Folinic acid (50 mg/kg) was administered intraperitoneally once daily for fourteen days. […] Hearts were removed from animals and flash frozen in liquid nitrogen with 10 seconds of death. Liver and lungs were removed en bloc and flash frozen with 30 seconds of death. Brain tissue was subsequently dissected."}, "muscarinic receptors": {"test_system": "muscarinic receptors", "settings": "cited from earlier work"}, "[5]": {"biological_target": "T1, M(1)-muscarinic receptors (Homo sapiens, UniProt P11229)", "T1 sequence (P11229 1-460)": "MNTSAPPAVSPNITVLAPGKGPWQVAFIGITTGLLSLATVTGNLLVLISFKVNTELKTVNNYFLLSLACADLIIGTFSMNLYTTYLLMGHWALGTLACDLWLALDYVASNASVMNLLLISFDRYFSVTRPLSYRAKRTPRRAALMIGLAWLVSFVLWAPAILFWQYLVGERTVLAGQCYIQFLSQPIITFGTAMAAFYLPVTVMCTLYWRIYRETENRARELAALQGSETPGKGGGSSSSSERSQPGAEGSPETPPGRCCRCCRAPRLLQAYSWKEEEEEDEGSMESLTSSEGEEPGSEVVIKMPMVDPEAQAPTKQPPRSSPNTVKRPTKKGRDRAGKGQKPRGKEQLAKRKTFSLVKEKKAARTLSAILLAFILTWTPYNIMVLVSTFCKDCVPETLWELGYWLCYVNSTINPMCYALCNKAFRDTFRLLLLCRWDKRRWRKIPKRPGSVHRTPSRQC", "settings": "cited from earlier work"}, "[6]": {"test_system": "asthmatic and chronic obstructive pulmonary disease (COPD) patients", "settings": "cited from earlier work"}, "[7]": {"test_system": "adult acute asthma exacerbation", "settings": "in conjunction with beta 2-agonists; adult and pediatric studies; cited from earlier work"}, "HT-29 SF cells [8]": {"test_system": "HT-29 SF cells", "experiment": "DHEA effect on cell cycle distribution (flow cytometry)", "assay_type": "cell-based, human", "settings": "25-200 μM, 24-72 hours; time- and dose-dependent", "description": "Cells were plated at 10^5/60-mm dish in duplicate. […] Cultures were trypsinized following […] and fixed and stained using a modification of a procedure of Bauer et al., Cancer Res., 46, 3173-3178 (1986). Briefly, cells were collected by centrifugation and resuspended in cold phosphate-buffered saline. Cells were fixed in 70% ethanol, washed, and resuspended in phosphate-buffered saline.\nAfter 24, 48, and 72 hours, cells were harvested, fixed in ethanol, and stained with propidium iodide, and the DNA content/cell was determined by flow cytometric analysis. The percentage of cells in G1, S, and G2M phases was calculated using the Cellfit cell cycle analysis program. S phase is marked by a quadrangle for clarity. Representative histograms from duplicate determinations are shown. The experiment was repeated three times."}, "HT-29 SF cells [9]": {"test_system": "HT-29 SF cells", "experiment": "DHEA effect on cell growth (Coulter counter)", "protocol": "Cell cultures, HT-29 SF cells, which represent a subline of HY-29 cells (ATCC, Rockville, Md.) and are adapted for growth in completely defined serum-free PC-1 medium (Ventrex, Portland, Me.), were obtained. Stock cultures were maintained in this medium at 37° (in a humidified atmosphere containing 5% CO2)."}, "[10]": {"test_system": "dust mite-sensitized rabbits", "experiment": "Adenosine sensitivity PC40 (Example 26 animals)", "settings": "5 animals"}, "[11]": {"test_system": "dust mite-sensitized rabbits", "experiment": "Adenosine sensitivity PC40 (Example 25 animals)", "settings": "4 animals"}}}
{"smiles": "CN1[C@@H]2CC[C@H]1C[C@@H](OC(=O)C(CO)c1ccccc1)C2", "note": "(stereo partly drawn) [atropine]", "values": [{"measurement": "inhibition of histamine release", "setting": "mast cell", "result": "no distinction"}]}
{"smiles": "CC(C)=CCC/C(C)=C/CC/C(C)=C/CC/C=C(\\C)CC/C=C(\\C)CCC=C(C)C", "note": "[SQ, squalene]", "values": [{"measurement": "reversal of DHEA-induced growth inhibition by supplement", "setting": "HT-29 SF cells [1]", "result": "no such effect"}]}
{"smiles": "CC(c1cc2ccccc2s1)N(O)C(N)=O", "note": "(stereo not drawn) [Zyflo]", "values": [{"measurement": "beta-agonist puffs per day lower than baseline", "setting": "[2]; at the end of the study", "result": 31, "unit": "%"}, {"measurement": "number of beta-agonist puffs needed per day", "setting": "[2]; at the end of the study", "result": 1.77, "unit": "puffs"}, {"measurement": "patients requiring steroid rescue", "setting": "[2]; compared with 18.7% placebo", "result": 7, "unit": "%"}, {"measurement": "reduction in patients requiring steroid rescue vs placebo", "setting": "[2]; human, in vivo", "result": 62, "unit": "%"}]}
{"smiles": "C[C@@](O)(CCO)CC(=O)O", "note": "[MVA, mevalonic acid]", "values": [{"measurement": "prevention of DHEA-induced S phase depletion", "setting": "HT-29 SF cells [3]; 48 hours", "result": "partially prevented"}, {"measurement": "prevention of DHEA-induced S phase depletion", "setting": "HT-29 SF cells [3]; 72 hours", "result": "not"}, {"measurement": "reversal of DHEA-induced growth inhibition by supplement", "setting": "HT-29 SF cells [1]", "result": "partially overcome"}]}
{"smiles": "CCC(CO)(C(=O)OC1C[C@H]2CC[C@@H](C1)[N+]2(C)C)c1ccccc1.[I-]", "note": "(stereo partly drawn) [troventol]", "values": [{"measurement": "decrease in speed of passive calcium ion uptake", "setting": "mast cells", "result": 56.3, "unit": "%"}, {"measurement": "inhibition of histamine release", "setting": "mast cell", "result": 47, "unit": "%"}]}
{"smiles": "Nc1nc(=O)c2c([nH]1)NCC(CNc1ccc(C(=O)N[C@@H](CCC(=O)O)C(=O)O)cc1)N2C=O", "note": "(mixture of isomers) [Folinic Acid, Folinic acid]", "values": [{"measurement": "adenosine levels, folinic acid administered alone", "setting": "[4]; all organs studied", "result": "increase in adenosine levels"}, {"measurement": "effect of co-administration of folinic acid on steroid-mediated adenosine depletion", "setting": "[4]; co-administered with DHEA or methyltestosterone", "result": "completely abrogated"}]}
{"smiles": "CC(C)CCC[C@@H](C)[C@H]1CC[C@H]2[C@@H]3CC=C4C[C@@H](O)CC[C@]4(C)[C@H]3CC[C@]12C", "note": "[CH, cholesterol]", "values": [{"measurement": "prevention of DHEA-induced S phase depletion", "setting": "HT-29 SF cells [3]; 48 hours", "result": "very little effect"}, {"measurement": "reversal of DHEA-induced growth inhibition by supplement", "setting": "HT-29 SF cells [1]", "result": "no such effect"}]}
{"smiles": "C[N+]1(C)[C@@H]2C[C@@H](OC(=O)C(O)(c3cccs3)c3cccs3)C[C@H]1[C@@H]1O[C@@H]12", "note": "[tiotropium bromide, Tiotropium bromide]", "values": [{"measurement": "affinity for muscarinic receptors", "setting": "muscarinic receptors", "result": "high affinity"}, {"measurement": "dissociation from receptor", "setting": "[5]", "result": "dissociates very slowly"}, {"measurement": "duration of bronchodilator and bronchoprotective effect", "setting": "[6]; Phase II, single inhaled doses", "result": "over 24 h"}, {"measurement": "patients with dryness of the mouth", "setting": "[6]; human, in vivo", "result": "approximately 10%"}, {"measurement": "duration of stable bronchodilation", "setting": "[6]; phase III clinical trials, inhaled once daily", "result": "more than 24 hours"}]}
{"smiles": "CC(C)[N+]1(C)[C@@H]2CC[C@H]1C[C@@H](OC(=O)C(CO)c1ccccc1)C2", "note": "(stereo partly drawn) [IB, Ipratropium Bromide]", "values": [{"measurement": "severe adverse effects attributable to ipratropium", "setting": "[7]", "result": "Neither the adult nor the pediatric studies reported severe adverse effects"}, {"measurement": "inhibition of histamine release", "setting": "mast cell", "result": "no distinction"}]}
{"smiles": "C[C@]12CC[C@H](O)CC1=CC[C@@H]1[C@@H]2CC[C@]2(C)C(=O)CC[C@@H]12", "note": "[DHEA, dehydroepiandrosterone]", "values": [{"measurement": "cell cycle effect (overall)", "setting": "HT-29 SF cells [8]", "result": "G1 block"}, {"measurement": "inhibition of growth", "setting": "HT-29 SF cells [9]; 0-200 μM, 0-72 hours", "result": "time- and dose-dependent inhibition of growth"}, {"measurement": "exposure time after which cell number reduced compared to controls", "setting": "HT-29 SF cells [9]; 25 or 50 μM DHEA", "result": 48, "unit": "h"}]}
{"smiles": "Nc1ncnc2c1ncn2[C@@H]1O[C@H](CO)[C@@H](O)[C@H]1O", "note": "[adenosine]", "values": [{"measurement": "PC40 for adenosine, mean", "setting": "[10]", "result": 4.5, "unit": "mg/mL"}, {"measurement": "PC40 for adenosine, mean", "setting": "[11]", "result": 2.5, "unit": "mg/mL"}]}
